SMILES strings stand for the structures. Converted amounts (≈) assume the structure as drawn.

The subject of assay [1] is N. gonorrhoeae strain FA 19. The conditions noted are these: N. gonorrhoeae FA19 (non-encapsulated); assays in triplicate. The protocol:
The peptides were dissolved in 0.01 % (v/v) acetic acid and stored at −20°C prior to use. Antibacterial assays were performed as described previously and used N. gonorrhoeae strain FA 19. All assays were performed in triplicate and values are reported as the minimal inhibitory concentration (MIC).

For assay [2], the system named is THP-1 cells. Description: TNFα release from THP-1 cells induced with meningococcal CPS pre-incubated with peptide (ELISA). It is filed as cell-based, human. The conditions noted are these: THP-1 cells induced overnight with serogroup B CPS-lpxA pre-incubated with 2 µg/ml peptide, 30 min, 37°C; Figure 1A. The protocol: (§1) Human THP-1 (macrophage-like cells) and murine RAW 264.7 (TLR4-sufficient), 23ScCr (TLR4-deficient) and HEK-TLR2/6/CD14 stably transfected cell lines were stimulated with meningococcal CPS polymers with or without pre-incubation with LL-37 and its analogs (Table 1). CPS polymers were purified from the LPS-deficient serogroup B Neisseria meningitidis lpxA mutant as well as other meningococcal serogroups A, B, C, W135 and Y. Purified CPS samples were freshly dissolved in pyrogen-free sterile H2O at 1 mg/ml stock concentration and vortexed for 2 min. Working CPS concentrations (ranging from 100 µg/ml to 50 ng/ml) were made in duplicate wells using sterile PBS by serial fold dilutions in the 96-well tissue culture plates (Becton Dickinson, Franklin Lakes, NJ) at 50 µl final volumes. […] Freshly grown THP-1 cells and HEK-TLR2/6 transfected cells as well as murine macrophages, each adjusted to 10^6 cell/ml and 250 µl aliquots were dispensed into each well at final 250×10^3 cell density in the designated 96-well plates. The plates were incubated overnight at 37°C with 5% CO2 and humidity. Supernatants from stimulated cells were harvested and stored at −20°C until use.
(§2) The cytokines TNFα, IL-6 and CXCL10 (IP-10), released from THP-1 cells, and IL-8, released from HEK-TLR2 transfected cells stimulated with meningococcal CPS polymers, were quantified by DuoSet ELISA (R&D Systems) as previously described.
(An ELISA detects its analyte on a solid surface through an enzyme-linked reagent.)

The test system of assay [3] is TLR4-sufficient and TLR4-deficient murine macrophages. Description: CXCL10 (IP-10) release from murine macrophages induced with meningococcal CPS. It is filed as cell-based. The method, then:
Human THP-1 (macrophage-like cells) and murine RAW 264.7 (TLR4-sufficient), 23ScCr (TLR4-deficient) and HEK-TLR2/6/CD14 stably transfected cell lines were stimulated with meningococcal CPS polymers with or without pre-incubation with LL-37 and its analogs (Table 1). CPS polymers were purified from the LPS-deficient serogroup B Neisseria meningitidis lpxA mutant as well as other meningococcal serogroups A, B, C, W135 and Y. Purified CPS samples were freshly dissolved in pyrogen-free sterile H2O at 1 mg/ml stock concentration and vortexed for 2 min. Working CPS concentrations (ranging from 100 µg/ml to 50 ng/ml) were made in duplicate wells using sterile PBS by serial fold dilutions in the 96-well tissue culture plates (Becton Dickinson, Franklin Lakes, NJ) at 50 µl final volumes. Cationic peptides (2, 4 or 8 µg/ml) or PBS equivalent volumes were added to designated wells and pre-incubated for 30 min at 37°C. Freshly grown THP-1 cells and HEK-TLR2/6 transfected cells as well as murine macrophages, each adjusted to 10^6 cell/ml and 250 µl aliquots were dispensed into each well at final 250×10^3 cell density in the designated 96-well plates. […]
as §2

Assay [4] deals with TLR2. As to the kind of experiment: Neutralization of the TLR2-mediated response induced by phospholipid extract PL-lpxA. It is filed as cell-based. The conditions noted are these: phospholipid extraction from LOS-deficient meningococci.
Assay [5] relates to meningococcal CPS-lpxA polymers. Description: Electrophoretic mobility shift assay (EMSA) of CPS complex with LL-37, CD14 and LBP. It is filed as binding, Neisseria meningitidis. To be noted: 5 µg LL-37, 0.5 µg rCD14, 0.5 µg rLBP, 3 h 37°C; 8% native PAGE, Western blot; Figure 8 lane 5. The protocol: To assess binding of CPS to LL-37 in the presence of human CD14 and LBP, an EMSA assay using native gel conditions was performed. Serogroup B CPS purified from a LOS-deficient meningococcal lpxA strain were dissolved in sterile H2O at 1 mg/ml concentration and 20 µl were transferred into an Eppendorf tube mixed with 10 µl (5 µg) of LL-37, 10 µl (0.5 µg) of human rCD14 and 10 µl (0.5 µg) of rLBP (R&D Systems) in […] and incubated for 3 h at 37°C. An aliquot of 7.5 µl of the mixed complexes were transferred into a new Eppendorf tube and mixed with an equal volume of sample buffer (0.1 M Tris-glycine buffer containing 20% glycerol and bromophenol blue) and 15 µl of the mixture were loaded on 8% native polyacrylamide gel electrophoresis (PAGE) without SDS as previously described. Electrophoresis was performed with Tris-glycine buffer pH 8.8 without SDS and run for 2 h at 4°C. The gel-shifting of CPS complexes was detected by Western blot method using biotinylated anti CD14 and anti LBP antibodies (R&D Systems) diluted 1∶1500× with blocking buffer.
(In general: In EMSA bound probe runs differently from free probe, usually more slowly.)

Assay [6] concerns HEK-TLR2/6 stably transfected cells. As to the kind of experiment: IL-8 release from HEK-TLR2/6 stably transfected cells induced with meningococcal CPS pre-incubated with peptide (ELISA). It counts as cell-based, human. The method, then:
(§3) Human THP-1 (macrophage-like cells) and murine RAW 264.7 (TLR4-sufficient), 23ScCr (TLR4-deficient) and HEK-TLR2/6/CD14 stably transfected cell lines were stimulated with meningococcal CPS polymers with or without pre-incubation with LL-37 and its analogs (Table 1). CPS polymers were purified from the LPS-deficient serogroup B Neisseria meningitidis lpxA mutant as well as other meningococcal serogroups A, B, C, W135 and Y. Purified CPS samples were freshly dissolved in pyrogen-free sterile H2O at 1 mg/ml stock concentration and vortexed for 2 min. Working CPS concentrations (ranging from 100 µg/ml to 50 ng/ml) were made in duplicate wells using sterile PBS by serial fold dilutions in the 96-well tissue culture plates (Becton Dickinson, Franklin Lakes, NJ) at 50 µl final volumes. Cationic peptides (2, 4 or 8 µg/ml) or PBS equivalent volumes were added to designated wells and pre-incubated for 30 min at 37°C. Freshly grown THP-1 cells and HEK-TLR2/6 transfected cells as well as murine macrophages, each adjusted to 10^6 cell/ml and 250 µl aliquots were dispensed into each well at final 250×10^3 cell density in the designated 96-well plates. The plates were incubated overnight at 37°C with 5% CO2 and humidity. Supernatants from stimulated cells were harvested and stored at −20°C until use.
as §2

Assay [7] concerns THP-1 cells. As to the kind of experiment: IL-6 release from THP-1 cells induced with meningococcal CPS pre-incubated with peptide (ELISA). It is filed as cell-based, human. To be noted: THP-1 cells induced overnight with CPS-lpxA pre-incubated with 2 µg/ml peptide, 30 min, 37°C; Figure 1B. The method, then:
as §1, with “Supernatants from stimulated cells were harvested and stored at −20°C until use.” left out
as §2

The subject of assay [8] is RAW 264.7 macrophages. Description: Nitric oxide release from RAW 264.7 macrophages induced with meningococcal CPS (Griess method). It counts as cell-based, murine. The protocol:
as §3
Freshly grown adherent RAW 246.7 or 23ScCr (TLR4-deficient) macrophages were harvested, washed and re-suspended in Dulbecco's complete media, counted and adjusted to 10^6 cell/ml. 250 µl aliquots were then dispensed into each well of a 96-well plate at final 250×10^3 cell density prior to stimulation with purified CPS polymers with or without cationic peptides. The induced RAW 264.7 or 23ScCr macrophages were incubated overnight at 37°C with 5% CO2 and supernatants were harvested and saved. Nitric oxide release was quantified using the Greiss chemical method as previously described.
In general terms: Nitrite, measured by Griess reagent, commonly stands in for NO production.

In general, MIC refers to the smallest concentration in the dilution series that meets the test's criterion for growth inhibition. For `CC[C@H](C)[C@H](NC(=O)[C@H](CCCCN)NC(=O)[C@H](CCC(=O)O)NC(=O)[C@H](CCCCN)NC(=O)[C@H](CO)NC(=O)[C@H](CCCCN)NC(=O)[C@H](CCCNC(=N)N)NC(=O)[C@H](Cc1ccccc1)NC(=O)[C@H](Cc1ccccc1)NC(=O)[C@H](CC(=O)O)NC(=O)CNC(=O)[C@H](CC(C)C)NC(=O)[C@@H](N)CC(C)C)C(=O)NCC(=O)N[C@@H](CCCCN)C(=O)N[C@@H](CCC(=O)O)C(=O)N[C@@H](Cc1ccccc1)C(=O)N[C@@H](CCCCN)C(=O)N[C@@H](CCCNC(=N)N)C(=O)N[C@H](C(=O)N[C@H](C(=O)N[C@@H](CCC(N)=O)C(=O)N[C@@H](CCCNC(=N)N)C(=O)N[C@H](C(=O)N[C@@H](CCCCN)C(=O)N[C@@H](CC(=O)O)C(=O)N[C@@H](Cc1ccccc1)C(=O)N[C@@H](CC(C)C)C(=O)N[C@@H](CCCNC(=N)N)C(=O)N[C@@H](CC(N)=O)C(=O)N[C@@H](CC(C)C)C(=O)N[C@H](C(=O)N1CCC[C@H]1C(=O)N[C@@H](CCCNC(=N)N)C(=O)N[C@H](C(=O)N[C@@H](CCC(=O)O)C(=O)N[C@@H](CO)C(=O)O)[C@@H](C)O)C(C)C)[C@@H](C)CC)C(C)C)[C@@H](C)CC` [LL-37], the MIC in assay [1] was 7.8 µg/mL (≈ 1.74 µM). Besides, in assay [2], the TNFα release entry is “inhibited”. In assay [3], the “CXCL10 (IP-10) release” value is given as “inhibited”. In addition, the “Neutralization of biologic activity of PL-lpxA” value in assay [4] was “failed to neutralize”. In assay [5], the “Gel-shift of CPS-lpxA-CD14-LBP complexes” value was “caused a gel-shift”. Further, the IL-8 release result in assay [6] (HEK-TLR2/6 cells induced with CPS-lpxA pre-incubated with 2 µg/ml peptide, Figure 1C) is on record as “inhibited”; in assay [6] (HEK/TLR2/6 cells stimulated with different meningococcal CPS structures pre-incubated with LL-37) it was “significant reduction in IL-8 release”. In addition, in assay [6] (HEK-TLR2/6 cells, serogroup A CPS pre-incubated with 4 µg/ml peptide, Figure 2A), the “Neutralization of CPS-induced IL-8 release” value was “neutralized”. For the same compound, the “IL-8 release induced by MAPS” value in assay [6] (HEK/TLR2/6 cells, vaccine grade serogroup A CPS (MAPS) pre-incubated with 2 µg/ml of LL-37, Figure 2B) is on record as “significantly reduced”. Moreover, the IL-6 release result in assay [7] is “inhibited”. For the same compound, in assay [8] (RAW 264 macrophages, complexes with CD14, LBP and LL-37, data not shown), the “Nitric oxide release by CPS-lpxA complexes used in gel-shift” value is “significant reduction in nitric oxide release”. In assay [8] (RAW 264 pre-treated with 10 µg/ml LL-37 for 30 min, washed, then CPS-lpxA 50 µg/ml, nitric oxide read-out, Figure S2), the “Cytokine release after pre-treatment of macrophages” value is on record as “did not affect cytokine release”. The Nitric oxide release result in assay [8] (RAW 264.7 induced with CPS-lpxA pre-incubated with 2 µg/ml peptide, nitrite after 24 h, Figure 1D) was “inhibited”.

For the origin of these results see paper PMC2964311, “The Human Host Defense Peptide LL-37 Interacts with Neisseria meningitidis Capsular Polysaccharides and Inhibits Inflammatory Mediators Release” (PLoS ONE, 2010).
